According to PubChem BioAssay (NCI):
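Values below derive from 48-hour exposures of cells grown in 96-well plates, with endpoints linearly interpolated between the two concentrations bracketing the appropriate inhibition level. Here, GI50 denotes the concentration required for 50% inhibition of growth. TGI marks complete inhibition of growth.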

Experiments:
Test in all cases: growth of human tumour cells (NCI), 48 h
786-0 renal = test system: 786-0 renal
A498 renal = test system: A498 renal
A549 NSCLC = test system: A549 NSCLC
ACHN renal = test system: ACHN renal
BT-549 breast = test system: BT-549 breast
CAKI-1 renal = test system: CAKI-1 renal
CCRF-CEM leukemia = test system: CCRF-CEM leukemia
COLO 205 colon = test system: COLO 205 colon
DU-145 prostate = test system: DU-145 prostate
EKVX NSCLC = test system: EKVX NSCLC
HCC-2998 colon = test system: HCC-2998 colon
HCT-116 colon = test system: HCT-116 colon
HCT-15 colon = test system: HCT-15 colon
HL-60(TB) leukemia = test system: HL-60(TB) leukemia
HOP-62 NSCLC = test system: HOP-62 NSCLC
HOP-92 NSCLC = test system: HOP-92 NSCLC
HS 578T breast = test system: HS 578T breast
HT29 colon = test system: HT29 colon
IGROV1 ovarian = test system: IGROV1 ovarian
K-562 leukemia = test system: K-562 leukemia
KM12 colon = test system: KM12 colon
LOX IMVI melanoma = test system: LOX IMVI melanoma
M14 melanoma = test system: M14 melanoma
MCF7 breast = test system: MCF7 breast
MDA-MB-231 breast = test system: MDA-MB-231 breast
MDA-MB-435 = test system: MDA-MB-435
MOLT-4 leukemia = test system: MOLT-4 leukemia
NCI-H226 lung = test system: NCI-H226 lung
NCI-H23 lung = test system: NCI-H23 lung
NCI-H460 lung = test system: NCI-H460 lung
NCI-H522 lung = test system: NCI-H522 lung
NCI/ADR-RES ovarian = test system: NCI/ADR-RES ovarian
OVCAR-3 ovarian = test system: OVCAR-3 ovarian
OVCAR-4 ovarian = test system: OVCAR-4 ovarian
OVCAR-5 ovarian = test system: OVCAR-5 ovarian
OVCAR-8 ovarian = test system: OVCAR-8 ovarian
PC-3 prostate = test system: PC-3 prostate
RPMI-8226 leukemia = test system: RPMI-8226 leukemia
RXF 393 renal = test system: RXF 393 renal
SF-268 CNS = test system: SF-268 CNS
SF-295 CNS = test system: SF-295 CNS
SF-539 CNS = test system: SF-539 CNS
SK-MEL-2 melanoma = test system: SK-MEL-2 melanoma
SK-MEL-28 melanoma = test system: SK-MEL-28 melanoma
SK-MEL-5 melanoma = test system: SK-MEL-5 melanoma
SK-OV-3 ovarian = test system: SK-OV-3 ovarian
SN12C renal = test system: SN12C renal
SNB-19 CNS = test system: SNB-19 CNS
SNB-75 CNS = test system: SNB-75 CNS
SR leukemia = test system: SR leukemia
SW-620 colon = test system: SW-620 colon
T-47D breast = test system: T-47D breast
TK-10 renal = test system: TK-10 renal
U251 CNS = test system: U251 CNS
UACC-257 melanoma = test system: UACC-257 melanoma
UACC-62 melanoma = test system: UACC-62 melanoma
UO-31 renal = test system: UO-31 renal

SMILES: N#Cc1c(N/N=C/c2ccc(Cl)cc2Cl)nc(N)nc1N1CCCC1
- GI50 (786-0 renal): 19.5 µM
- TGI (786-0 renal): 47.6 µM
- GI50 (A498 renal): 19.5 µM
- TGI (A498 renal): 36.1 µM
- GI50 (A549 NSCLC): 29.6 µM
- TGI (A549 NSCLC): 65 µM
- GI50 (ACHN renal): 24.5 µM
- TGI (ACHN renal): 90.2 µM
- GI50 (BT-549 breast): > 100 µM
- TGI (BT-549 breast): > 100 µM
- GI50 (CAKI-1 renal): 21.7 µM
- TGI (CAKI-1 renal): 63.2 µM
- GI50 (CCRF-CEM leukemia): 23.5 µM
- TGI (CCRF-CEM leukemia): 58.3 µM
- GI50 (COLO 205 colon): 88.1 µM
- TGI (COLO 205 colon): > 100 µM
- GI50 (DU-145 prostate): 10.7 µM
- TGI (DU-145 prostate): > 100 µM
- GI50 (EKVX NSCLC): > 100 µM
- TGI (EKVX NSCLC): > 100 µM
- GI50 (HCC-2998 colon): > 100 µM
- TGI (HCC-2998 colon): > 100 µM
- GI50 (HCT-116 colon): 20.9 µM
- TGI (HCT-116 colon): > 100 µM
- GI50 (HCT-15 colon): 19.3 µM
- TGI (HCT-15 colon): > 100 µM
- GI50 (HL-60(TB) leukemia): 27.7 µM
- TGI (HL-60(TB) leukemia): 59.4 µM
- GI50 (HOP-62 NSCLC): 15.2 µM
- TGI (HOP-62 NSCLC): 32.4 µM
- GI50 (HOP-92 NSCLC): 17.6 µM
- TGI (HOP-92 NSCLC): 43.7 µM
- GI50 (HS 578T breast): 2.4 µM
- TGI (HS 578T breast): 7.01 µM
- GI50 (HT29 colon): 37.1 µM
- TGI (HT29 colon): > 100 µM
- GI50 (IGROV1 ovarian): 13.8 µM
- TGI (IGROV1 ovarian): 39.5 µM
- GI50 (K-562 leukemia): 16.7 µM
- TGI (K-562 leukemia): 49.5 µM
- GI50 (KM12 colon): > 100 µM
- TGI (KM12 colon): > 100 µM
- GI50 (LOX IMVI melanoma): 31.8 µM
- TGI (LOX IMVI melanoma): > 100 µM
- GI50 (M14 melanoma): 44.2 µM
- TGI (M14 melanoma): > 100 µM
- GI50 (MCF7 breast): > 100 µM
- TGI (MCF7 breast): > 100 µM
- GI50 (MDA-MB-231 breast): 24.8 µM
- TGI (MDA-MB-231 breast): > 100 µM
- GI50 (MDA-MB-435): 62.2 µM
- TGI (MDA-MB-435): > 100 µM
- GI50 (MOLT-4 leukemia): 25 µM
- TGI (MOLT-4 leukemia): > 100 µM
- GI50 (NCI-H226 lung): 15.7 µM
- TGI (NCI-H226 lung): > 100 µM
- GI50 (NCI-H23 lung): 38.5 µM
- TGI (NCI-H23 lung): > 100 µM
- GI50 (NCI-H460 lung): 63.9 µM
- TGI (NCI-H460 lung): > 100 µM
- GI50 (NCI-H522 lung): 28.9 µM
- TGI (NCI-H522 lung): > 100 µM
- GI50 (NCI/ADR-RES ovarian): 19.4 µM
- TGI (NCI/ADR-RES ovarian): 82.4 µM
- GI50 (OVCAR-3 ovarian): 25.5 µM
- TGI (OVCAR-3 ovarian): > 100 µM
- GI50 (OVCAR-4 ovarian): 14.8 µM
- TGI (OVCAR-4 ovarian): > 100 µM
- GI50 (OVCAR-5 ovarian): 24.6 µM
- TGI (OVCAR-5 ovarian): 99.7 µM
- GI50 (OVCAR-8 ovarian): 27.5 µM
- TGI (OVCAR-8 ovarian): > 100 µM
- GI50 (PC-3 prostate): 12.2 µM
- TGI (PC-3 prostate): 38.4 µM
- GI50 (RPMI-8226 leukemia): 30.9 µM
- TGI (RPMI-8226 leukemia): > 100 µM
- GI50 (RXF 393 renal): 21.5 µM
- TGI (RXF 393 renal): 66.2 µM
- GI50 (SF-268 CNS): 68.3 µM
- TGI (SF-268 CNS): > 100 µM
- GI50 (SF-295 CNS): 18.8 µM
- TGI (SF-295 CNS): > 100 µM
- GI50 (SF-539 CNS): 22.8 µM
- TGI (SF-539 CNS): > 100 µM
- GI50 (SK-MEL-2 melanoma): 72.3 µM
- TGI (SK-MEL-2 melanoma): > 100 µM
- GI50 (SK-MEL-28 melanoma): 37.6 µM
- TGI (SK-MEL-28 melanoma): > 100 µM
- GI50 (SK-MEL-5 melanoma): 21.5 µM
- TGI (SK-MEL-5 melanoma): > 100 µM
- GI50 (SK-OV-3 ovarian): 47.8 µM
- TGI (SK-OV-3 ovarian): > 100 µM
- GI50 (SN12C renal): 51.9 µM
- TGI (SN12C renal): > 100 µM
- GI50 (SNB-19 CNS): 49.9 µM
- TGI (SNB-19 CNS): > 100 µM
- GI50 (SNB-75 CNS): 6.26 µM
- TGI (SNB-75 CNS): 49.8 µM
- GI50 (SR leukemia): 10.7 µM
- TGI (SR leukemia): 42.9 µM
- GI50 (SW-620 colon): 19.5 µM
- TGI (SW-620 colon): > 100 µM
- GI50 (T-47D breast): 88.4 µM
- TGI (T-47D breast): > 100 µM
- GI50 (TK-10 renal): 54.3 µM
- TGI (TK-10 renal): > 100 µM
- GI50 (U251 CNS): 9.02 µM
- TGI (U251 CNS): 23.4 µM
- GI50 (UACC-257 melanoma): > 100 µM
- TGI (UACC-257 melanoma): > 100 µM
- GI50 (UACC-62 melanoma): 25.6 µM
- TGI (UACC-62 melanoma): 84.2 µM
- GI50 (UO-31 renal): 32 µM
- TGI (UO-31 renal): > 100 µM
